From patent US20200340984A1, “METHODS OF QUANTIFYING CFTR PROTEIN EXPRESSION” (Proteostasis Therapeutics, Inc., priority 2017, published 2020)

Assays:
CFTR = experiment: Western blot analysis of CFTR expression, H508 cells; assay type: cell-based
Experimental: Cells were washed with ice-cold phosphate-buffered saline (PBS) and lysed in Pierce™ immunoprecipitation (IP)-Lysis Buffer (Thermo Fisher Scientific Inc., Grand Island, N.Y.) containing protease inhibitor cocktail (cOmplete™ Mini Protease Inhibitor Cocktail tablets, Roche Diagnostics GmBH, Mannheim, Germany). The cells were incubated with lysis buffer for 30 minutes on ice and centrifuged for 30 minutes at 13,000 rpm. Supernatant was collected and protein concentration was assayed by Pierce™ BCA Protein Assay Kit (Thermo Fisher Scientific). The cell lysates were loaded on a NuPAGE 3%-8% Tris-Acetate Gel (Thermo Fisher Scientific), and transferred onto a nitrocellulose membrane (Trans-Blot® Turbo™ Mini Nitrocellulose Transfer Packs, Bio-Rad, Hercules, Calif.). The membrane was blocked in tris-buffered saline with Tween-20 (TBST) and 5% milk and probed with mouse CFTR antibody (UNC596, 1:500 dilution) at 4° C. with gentle shaking overnight. Next day, membrane was washed three times with (TBST). Then, the membrane was incubated for 2 hours with anti-mouse IgG, horseradish peroxidase (HRP)-linked antibody (Cell Signaling Technology, Beverly, Mass.) at 1:2000 dilution. […]

F508del CFTR protein = experiment: CFTR ELISA, HNE-CF (F508del) cultures; assay type: cell-based, human; details: HNE-CF (homozygous F508del), 10 μM, 24 hours, vs DMSO
Experimental: Primary human airway epithelial cells of nasal origin (HNEs) from CF donors homozygous for the F508del mutation (HNE CF) and non-CF donors (HNE WT) were purchased from Epithelix Sàrl (Geneva, Switzerland). The cells were cultured and differentiated as previously described (Pranke et al. (2017) Sci Rep. 7(1):7375). The primary cells were apically mucous washed for 30 minutes prior to treatment with the amplifier PTI-CH (1, 3, or 10 μM) and DMSO for 24 hours.
96-well half area microplates (Greiner Bio-One, Monroe, N.C.) were coated with 3 μg/mL of CFTR antibody UNC596 overnight at 4° C. with gentle shaking. Wells were washed 3 times with TBS-T buffer, blocked with SuperBlock™ T20 Blocking Buffer (Thermo Fisher Scientific) and the washing step was repeated. The CFTR standard used was a fusion peptide (SEQ ID NO:1) that is recognized by UNC450 and UNC596 (GenScript, Piscataway, N.J.).
Serial dilutions of CFTR standard, cell lysates, and nasal brushing samples were prepared in IP lysis buffer. […] The assay was read on the EnVision-Multilabel Reader (Perkin Elmer, Waltham, Mass.).
To further confirm this finding, human nasal epithelial (HNE) cultures obtained from a non-CF (HNE-WT) or CF (HNE-F508del) donor were treated with and amplifier compound. Following 24-hour treatment period, filters were analyzed for either mRNA or protein analyses. […]

O=C(NCCCn1nncc1CO)c1cc(-c2ccccc2)on1 [PTI-CH]
fold changes in CFTR expression (CFTR): 1.4 ×
increase in CFTR protein (F508del CFTR protein): 1.7 fold
